Measured values as given in ChEMBL document CHEMBL3822398, “Design, synthesis and in vitro biological evaluation of short-chain C12-sphinganine and its 1,2,3-triazole analogs as potential antimicrobial and anti-biofilm agents” (Eur J Med Chem, 2016).
Values after ≈ are worked out from the molar mass of the structure shown.

Tests used:
Type in all cases: functional
Staphylococcus aureus [1] = test: Antibacterial activity against Staphylococcus aureus MTCC 96 incubated for 24 hrs at 37 degC by well diffusion method; details: MTCC 96, 24 h
Bacillus subtilis [2] = test: Antibacterial activity against Bacillus subtilis MTCC 121 incubated for 24 hrs at 37 degC by well diffusion method; details: MTCC 121, 24 h
Staphylococcus aureus [3] = test: Antibacterial activity against Staphylococcus aureus MLS16 MTCC 2940 incubated for 24 hrs at 37 degC by well diffusion method; details: MLS16 MTCC 2940, 24 h
Micrococcus luteus [4] = test: Antibacterial activity against Micrococcus luteus MTCC 2470 incubated for 24 hrs at 37 degC by well diffusion method; details: MTCC 2470, 24 h
Raoultella planticola [5] = test: Antibacterial activity against Klebsiella planticola MTCC 530 incubated for 24 hrs at 37 degC by well diffusion method; details: MTCC 530, 24 h
Escherichia coli [6] = test: Antibacterial activity against Escherichia coli MTCC 739 incubated for 24 hrs at 37 degC by well diffusion method; details: MTCC 739, 24 h
Pseudomonas aeruginosa = test: Antibacterial activity against Pseudomonas aeruginosa MTCC 2453 incubated for 24 hrs at 37 degC by well diffusion method; details: MTCC 2453, 24 h
Staphylococcus aureus [7] = test: Bactericidal activity against Staphylococcus aureus MTCC 96 incubated for 24 hrs; details: MTCC 96, 24 h
Bacillus subtilis [8] = test: Bactericidal activity against Bacillus subtilis MTCC 121 incubated for 24 hrs; details: MTCC 121, 24 h
Staphylococcus aureus [9] = test: Bactericidal activity against Staphylococcus aureus MLS16 MTCC 2940 incubated for 24 hrs; details: MLS16 MTCC 2940, 24 h
Micrococcus luteus [10] = test: Bactericidal activity against Micrococcus luteus MTCC 2470 incubated for 24 hrs; details: MTCC 2470, 24 h
Raoultella planticola [11] = test: Bactericidal activity against Klebsiella planticola MTCC 530 incubated for 24 hrs; details: MTCC 530, 24 h
Escherichia coli [12] = test: Bactericidal activity against Escherichia coli MTCC 739 incubated for 24 hrs; details: MTCC 739, 24 h
Candida albicans [13] = test: Antifungal activity against Candida albicans MTCC 183 incubated for 24 hrs at 30 degC by well diffusion method; details: MTCC 183, 24 h
Candida albicans [14] = test: Antifungal activity against Candida albicans MTCC 227 incubated for 24 hrs at 30 degC by well diffusion method; details: MTCC 227, 24 h
Candida albicans [15] = test: Antifungal activity against Candida albicans MTCC 854 incubated for 24 hrs at 30 degC by well diffusion method; details: MTCC 854, 24 h
Candida albicans [16] = test: Antifungal activity against Candida albicans MTCC 1637 incubated for 24 hrs at 30 degC by well diffusion method; details: MTCC 1637, 24 h
Candida albicans [17] = test: Antifungal activity against Candida albicans MTCC 3017 incubated for 24 hrs at 30 degC by well diffusion method; details: MTCC 3017, 24 h
Candida albicans [18] = test: Antifungal activity against Candida albicans MTCC 3018 incubated for 24 hrs at 30 degC by well diffusion method; details: MTCC 3018, 24 h
Candida albicans [19] = test: Antifungal activity against Candida albicans MTCC 3958 incubated for 24 hrs at 30 degC by well diffusion method; details: MTCC 3958, 24 h
Candida albicans [20] = test: Antifungal activity against Candida albicans MTCC 4748 incubated for 24 hrs at 30 degC by well diffusion method; details: MTCC 4748, 24 h
Candida albicans [21] = test: Antifungal activity against Candida albicans MTCC 7315 incubated for 24 hrs at 30 degC by well diffusion method; details: MTCC 7315, 24 h
Candida parapsilosis [22] = test: Antifungal activity against Candida parapsilosis MTCC 1744 incubated for 24 hrs at 30 degC by well diffusion method; details: Lodderomyces parapsilosis, MTCC 1744, 24 h
[Candida] aaseri [23] = Antifungal activity against Candida aaseri MTCC 1962 incubated for 24 hrs at 30 degC by well diffusion method; details: Yamadazyma aaseri, MTCC 1962, 24 h
Nakaseomyces glabratus [24] = test: Antifungal activity against Candida glabrata MTCC 3019 incubated for 24 hrs at 30 degC by well diffusion method; details: MTCC 3019, 24 h
Pichia kudriavzevii [25] = test: Antifungal activity against Candida krusei MTCC 3020 incubated for 24 hrs at 30 degC by well diffusion method; details: MTCC 3020, 24 h
Pichia sporocuriosa [26] = test: Antifungal activity against Issatchenkia hanoiensis MTCC 4755 incubated for 24 hrs at 30 degC by well diffusion method; details: MTCC 4755, 24 h
Candida albicans [27] = test: Fungicidal activity against Candida albicans MTCC 183 incubated for 24 hrs; details: MTCC 183, 24 h
Candida albicans [28] = test: Fungicidal activity against Candida albicans MTCC 227 incubated for 24 hrs; details: MTCC 227, 24 h
Candida albicans [29] = test: Fungicidal activity against Candida albicans MTCC 854 incubated for 24 hrs; details: MTCC 854, 24 h
Candida albicans [30] = test: Fungicidal activity against Candida albicans MTCC 1637 incubated for 24 hrs; details: MTCC 1637, 24 h
Candida albicans [31] = test: Fungicidal activity against Candida albicans MTCC 3017 incubated for 24 hrs; details: MTCC 3017, 24 h
Candida albicans [32] = test: Fungicidal activity against Candida albicans MTCC 3018 incubated for 24 hrs; details: MTCC 3018, 24 h
Candida albicans [33] = test: Fungicidal activity against Candida albicans MTCC 3958 incubated for 24 hrs; details: MTCC 3958, 24 h
Candida albicans [34] = test: Fungicidal activity against Candida albicans MTCC 4748 incubated for 24 hrs; details: MTCC 4748, 24 h
Candida albicans [35] = test: Fungicidal activity against Candida albicans MTCC 7315 incubated for 24 hrs; details: MTCC 7315, 24 h
Candida parapsilosis [36] = test: Fungicidal activity against Candida parapsilosis MTCC 1744 incubated for 24 hrs; details: Lodderomyces parapsilosis, MTCC 1744, 24 h
[Candida] aaseri [37] = Fungicidal activity against Candida aaseri MTCC 1962 incubated for 24 hrs; details: Yamadazyma aaseri, MTCC 1962, 24 h
Nakaseomyces glabratus [38] = test: Fungicidal activity against Candida glabrata MTCC 3019 incubated for 24 hrs; details: MTCC 3019, 24 h
Pichia kudriavzevii [39] = test: Fungicidal activity against Candida krusei MTCC 3020 incubated for 24 hrs; details: MTCC 3020, 24 h
Pichia sporocuriosa [40] = test: Fungicidal activity against Issatchenkia hanoiensis MTCC 4755 incubated for 24 hrs; details: MTCC 4755, 24 h

## O=C(O)c1cn(C2CC2)c2cc(N3CCNCC3)c(F)cc2c1=O [CIPROFLOXACIN]
Staphylococcus aureus [1]
  MIC: 0.9 µg/mL (≈ 2.72 µM)
Bacillus subtilis [2]
  MIC: 0.9 µg/mL (≈ 2.72 µM)
Staphylococcus aureus [3]
  MIC: 0.9 µg/mL (≈ 2.72 µM)
Micrococcus luteus [4]
  MIC: 0.9 µg/mL (≈ 2.72 µM)
Raoultella planticola [5]
  MIC: 0.9 µg/mL (≈ 2.72 µM)
Escherichia coli [6]
  MIC: 0.9 µg/mL (≈ 2.72 µM)
Pseudomonas aeruginosa
  MIC: 0.9 µg/mL (≈ 2.72 µM)
Staphylococcus aureus [7]
  MBC: 0.9 µg/mL (≈ 2.72 µM)
Bacillus subtilis [8]
  MBC: 1.9 µg/mL (≈ 5.73 µM)
Staphylococcus aureus [9]
  MBC: 1.9 µg/mL (≈ 5.73 µM)
Micrococcus luteus [10]
  MBC: 0.9 µg/mL (≈ 2.72 µM)
Raoultella planticola [11]
  MBC: 0.9 µg/mL (≈ 2.72 µM)
Escherichia coli [12]
  MBC: 1.9 µg/mL (≈ 5.73 µM)

## CCCCCCCCC[C@@H](O)[C@@H](N)CO
Staphylococcus aureus [1]
  MIC: > 250 µg/mL
Bacillus subtilis [2]
  MIC: > 250 µg/mL
Staphylococcus aureus [3]
  MIC: 31.2 µg/mL (≈ 144 µM)
Micrococcus luteus [4]
  MIC: 3.9 µg/mL (≈ 17.9 µM)
Raoultella planticola [5]
  MIC: 15.6 µg/mL (≈ 71.8 µM)
Escherichia coli [6]
  MIC: 15.6 µg/mL (≈ 71.8 µM)
Pseudomonas aeruginosa
  MIC: > 250 µg/mL
Candida albicans [13]
  MIC: 15.6 µg/mL (≈ 71.8 µM)
Candida albicans [14]
  MIC: 31.2 µg/mL (≈ 144 µM)
Candida albicans [15]
  MIC: 31.2 µg/mL (≈ 144 µM)
Candida albicans [16]
  MIC: 15.6 µg/mL (≈ 71.8 µM)
Candida albicans [17]
  MIC: 15.6 µg/mL (≈ 71.8 µM)
Candida albicans [18]
  MIC: 7.8 µg/mL (≈ 35.9 µM)
Candida albicans [19]
  MIC: 15.6 µg/mL (≈ 71.8 µM)
Candida albicans [20]
  MIC: 31.2 µg/mL (≈ 144 µM)
Candida albicans [21]
  MIC: 31.2 µg/mL (≈ 144 µM)
Candida parapsilosis [22]
  MIC: 62.5 µg/mL (≈ 288 µM)
[Candida] aaseri [23]
  MIC: 15.6 µg/mL (≈ 71.8 µM)
Nakaseomyces glabratus [24]
  MIC: 7.8 µg/mL (≈ 35.9 µM)
Pichia kudriavzevii [25]
  MIC: 15.6 µg/mL (≈ 71.8 µM)
Pichia sporocuriosa [26]
  MIC: 15.6 µg/mL (≈ 71.8 µM)
Staphylococcus aureus [7]
  MBC: > 250 µg/mL
Bacillus subtilis [8]
  MBC: > 250 µg/mL
Staphylococcus aureus [9]
  MBC: 31.2 µg/mL (≈ 144 µM)
Micrococcus luteus [10]
  MBC: 7.8 µg/mL (≈ 35.9 µM)
Raoultella planticola [11]
  MBC: 31.2 µg/mL (≈ 144 µM)
Escherichia coli [12]
  MBC: 31.2 µg/mL (≈ 144 µM)
Candida albicans [27]
  MFC: 15.6 µg/mL (≈ 71.8 µM)
Candida albicans [28]
  MFC: 62.5 µg/mL (≈ 288 µM)
Candida albicans [29]
  MFC: 31.2 µg/mL (≈ 144 µM)
Candida albicans [30]
  MFC: 15.6 µg/mL (≈ 71.8 µM)
Candida albicans [31]
  MFC: 31.2 µg/mL (≈ 144 µM)
Candida albicans [32]
  MFC: 15.6 µg/mL (≈ 71.8 µM)
Candida albicans [33]
  MFC: 31.2 µg/mL (≈ 144 µM)
Candida albicans [34]
  MFC: 31.2 µg/mL (≈ 144 µM)
Candida albicans [35]
  MFC: 62.5 µg/mL (≈ 288 µM)
Candida parapsilosis [36]
  MFC: 62.5 µg/mL (≈ 288 µM)
[Candida] aaseri [37]
  MFC: 31.2 µg/mL (≈ 144 µM)
Nakaseomyces glabratus [38]
  MFC: 7.8 µg/mL (≈ 35.9 µM)
Pichia kudriavzevii [39]
  MFC: 31.2 µg/mL (≈ 144 µM)
Pichia sporocuriosa [40]
  MFC: 15.6 µg/mL (≈ 71.8 µM)
